Where a name gives a salt, the structure may show the parent alone.
Assays:
mature hCOs = experiment: mature hCO, cardiomyocyte proliferation (Ki-67 intensity, Ki-67+ α-actinin cardiomyocytes); type: cell-based, human
Experimental: hCOs were cultured in CTRL medium for formation for 5 days and then either kept in CTRL medium culture or changed to maturation medium (Mills et al., 2017a) comprising DMEM without glucose, glutamine and phenol red (ThermoFisher Scientific) supplemented with 4% […](without insulin) (ThermoFisher Scientific), 1% GlutaMAX (ThermoFisher Scientific), 200 μM L-ascorbic acid 2-phosphate sesquimagnesium salt hydrate and 1% Penicillin/Streptomycin (ThermoFisher Scientific), 1 mmol/L glucose and 100 μmon palmitic acid (conjugated to bovine serum albumin within B27 by incubating for 2h at 37° C., Sigma) with changes every 2-3 days.
Whole-Mount Immunostaining hCOs were fixed for 60 min with 1% paraformaldehyde (Sigma) at room temperature and washed 3× with PBS, after which they were incubated with primary antibodies (see Star Methods Table) in Blocking Buffer, 5% FBS and 0.2% Triton-X-100 (Sigma) in PBS overnight at 4° C. Cells were then washed in Blocking Buffer 2× for 2 h and subsequently incubated with secondary antibodies (see Star Methods Table) and Hoechst33342 (1:1000) overnight at 4° C. They were washed in Blocking Buffer 2× for 2 h and imaged in situ or mounted on microscope slides using Fluoromount-G (Southern Biotech).
For screening hCOs were imaged using a Leica DMi8 high content imaging microscope for in situ imaging. Custom batch processing files were written in Matlab R2013a (Mathworks) to remove the background, calculate the image intensity, and export the batch data to an Excel (Microsoft) spreadsheet.
For more detailed images an Olympus IX81 confocal microscope was used for mounted hCO imaging. For cell cycle analysis experiments 3 random fields of view were imaged and manually quantified for proliferation. These were added together to calculate the percentage of hPSC-CM proliferation in each hCO.
Hits were next validated in mature hCOs using a targeted concentration range based on their active concentrations in the initial immature hCO screen (FIG. 3A). Proliferation markers were quantified using high magnification confocal imaging as we found flow cytometry to be inaccurate in hCO (data not shown). Compounds 3, 63 and 65 had no impact on contractile force (FIG. 3B) at concentrations of 3 μM, 0.3 μM and 1 μM, respectively. […] The effects of both compound 3 and compound 65 were reversible, with proliferation ceasing within 5 days of compound withdrawal (FIG. 8B). Therefore, compound 3 (FIG. 3G) and compound 65 (Goldberg et al., 2009) (FIG. 3H) are both capable of inducing bona fide cardiomyocyte proliferation in mature hCOs without adversely affecting contractile properties.

2D hPSC-CM = 2D hPSC-CM culture, Ki-67 image cytometry (proliferation, number, size); type: cell-based, human; conditions: 24 h, 0.5 M mevalonic acid 5-phosphate, 20 μM GGPP, 20 μM FPP, 20 μM squalene
Experimental: Day 15 dissociated differentiation cultures were plated at 100,000 cells/cm2 in 0.1% gelatin coated 96-well tissue culture plates in CTRL medium. For 3 day incubation experiments, after 2 days of culture in CTRL medium, cells were then treated with 10 μM simvastatin in maturation medium for a further 3 days. For 1 day incubation experiments, after 1 day of culture in CTRL medium, cells were treated with 10 μM simvastatin, 0.5 M (±)-Mevalonic acid 5-phosphate lithium salt hydrate, 20 μM geranylgeranyl pyrophosphate, 20 μM farnesyl pyrophosphate and/or 20 μM squalene in maturation medium for a further day.
hCOs were fixed for 10 min with 1% paraformaldehyde (Sigma) at room temperature and washed 3× with PBS, after which they were incubated with primary antibodies (see Star Methods Table) in Blocking Buffer, 5% FBS and 0.2% Triton-X-100 (Sigma) in PBS for 1-2 hours at room temperature. Cells were then washed in Blocking Buffer 2× for 3 min and subsequently incubated with secondary antibodies (see Star Methods Table) and Hoechst33342 (1:1000) for 1 hour at room temperature. They were washed in Blocking Buffer 2× and imaged.
For screening hCOs were imaged using a Leica DMi8 high content imaging microscope for in situ imaging. Custom batch processing files were written in Matlab R2013a (Mathworks) to analyse the number of cardiomyocytes, identify the nuclei of proliferating (Ki-67+) cardiomyocytes and determine the average size of the cardiomyocytes, and export the batch data to an Excel (Microsoft) spreadsheet.
Initial experiments were performed in immature proliferative 2D hPSC-CM (FIG. 6A) using high content imaging (FIG. 6B) and image cytometry analysis (FIG. 13A). HMGCR mediated production of cholesterol metabolites was inhibited with 10 μM simvastatin for 3 days.
In order to determine which metabolites in the mevalonate pathway are critical for proliferation, we performed experiments over 24 hours to enable more precise control of metabolites and to measure the primary effects of the manipulations. In these experiments, the mevalonate pathway was inhibited using 10 μM simvastatin, and then different metabolites were provided within the medium (highlighted in red in FIG. 6F).

mature hCO = experiment: single organoid quantitative proteomics of mature hCO; type: cell-based, human; conditions: mature hCO proteomics
Experimental: Single hCO were washed 2× in PBS and snap frozen and stored at −80° C. Tissues were lysed in by tip-probe sonication in 1% SDS containing 100 mM Tris pH 8.0, 10 mM tris(2-carboxyethyl)phosphine, 40 mM 2-chloroacetamide and heated to 95° C. for 5 min. Proteins were purified using a modified Single-Pot Solid-Phase-enhanced Sample Preparation (SP3) strategy (Hughes et al., 2014). Briefly, Proteins were bound to Sera-Mag carboxylate coated paramagnetic beads in 50% acetonitrile containing 0.8% formic acid (v/v) (ThermoFisher Scientific). The beads were washed twice with 70% ethanol (v/v) and once with 100% acetonitrile. Proteins were digested on the beads in 100 mM Tris pH 7.5 containing 10% 2,2,2-Trifluoroethanol overnight at 37° C. with 200 ng of sequencing grade LysC (Wako Chemicals) and trypsin (Sigma). Beads were removed and peptides acidified to 1% trifluoroacetic acid prior to purification by styrene divinyl benzene-reversed phase sulfonated solid phase extraction microcolumns. Peptides were spiked with iRT peptides (Biognosys) and analysed on an Easy-nLC1200 coupled to a Q-Exactive HF in positive polarity mode. Peptides were separated using an in-house packed 75 μm×50 cm pulled column (1.9 μm particle size, C18AQ; Dr Maisch) with a gradient of 2-35% acetonitrile containing 0.1% FA over 120 min at 300 nL/min at 60° C. The instrument was operated in data-independent acquisition (DIA) mode essentially as described previously (Bruderer et al., 2017). Briefly, an MS1 scan was acquired from 350-1650 m/z (120,000 resolution, 3e6 AGC, 50 ms injection time) followed by 20 MS/MS variable sized isolation windows with HCD (30,000 resolution, 3e6 AGC, 27 NCE). A spectral library was created by fractionating a pooled mix of peptides from 10 separate hCO on an inhouse packed 320 μm×25 cm column (3 μm particle size, BEH; Waters) with a gradient of 2-40% acetonitrile containing 10 mM ammonium formate over 60 min at 6 μL/min using an Agilent 1260 HPLC. A total of 12 concatenated fractions were analysed using the identical LC-MS/MS conditions above except the instrument was operated in data-dependent acquisition (DDA) mode. Briefly, an MS1 scan was acquired from 350-1650 m/z (60,000 resolution, 3e6 AGC, 50 ms injection time) followed by 20 MS/MS with HCD (1.4 m/z isolation, 15,000 resolution, 1e5 AGC, 27 NCE). DDA data were processed with Andromeda in MaxQuant v1.5.8.3 (Cox and Mann, 2008) against the human UniProt database (January 2016) using all default settings with peptide spectral matches and protein false discovery rate (FDR) set to 1%. DIA data were processed with Spectronaut v11 (Bruderer et al., 2015) using all default settings with precursor and protein FDR set to 1% and quantification performed at MS2.
Proteomic data were Log 2 transformed and median normalised. Removal of unwanted variation method (RUV) was applied to remove any batch effects (Gagnon-Bartsch et al., 2013). Differential abundance was determined with two sample t-tests with FDR-based multiple hypothesis testing correction. GO analysis was performed with DAVID v6.8 and gene ontology terms from BP_FAT (Huang da et al., 2009) and heat-maps and hierarchical clustering was performed using GENE-E (Broad Institute).
In order to determine the biological processes driving the pro-proliferative effects of our hit compounds, we performed RNA-sequencing (RNA-seq) and single organoid quantitative proteomics (FIG. 4A). These analyses were performed on hCOs treated with compounds 3, 63 and 65 at concentrations of 3 μM, 0.3 μM and 1 μM, respectively. RNA-seq for hCO treated with compounds 3 and 65 clustered distinctly in principal component analysis (FIG. 4B) and regulated a total of 239 and 207 genes (FIG. 9A), respectively.

[1] = system: adult rodent cardiomyocyte; conditions: Mohamed et al., 2018; cited from earlier work
kinases = conditions: Fan et al., 2016; cited from earlier work

## CC(O)(CCOP(=O)(O)O)CC(=O)O (racemic) [mevalonate, (±)-Mevalonic acid 5-phosphate lithium salt hydrate, reference compound]
Mature hCOs; 0.5 mM, 2 days
  proliferation in mature hCO: induces proliferation
2D hPSC-CM
  rescue of proliferation under 10 μM simvastatin: rescued proliferation

## Cc1c[nH]c(-c2cnc(NCCNc3ccc(C#N)cn3)nc2-c2ccc(Cl)cc2Cl)n1 [CHIR99021, reference compound]
Mature hCOs; 5 μM CHIR99021 or 1 μM compound 51 alone
  proliferation in mature hCO, compound individually: failed to activate proliferation individually
Mature hCO
  proliferation signature proteins (cell cycle network, mevalonate enzymes, nuclear transporters): only the “cell cycle network” proteins were induced

## NC(=O)c1ccc(-c2nc(-c3ccc4c(c3)OCO4)c(-c3ccccn3)[nH]2)cc1 [SB431542]
[1]
  pro-proliferative activity alone: not sufficient

## CN1C(=O)c2sccc2N(C)c2nc(Nc3ccc(S(N)(=O)=O)cc3)ncc21 [XMU-MP-1, reference compound]
Mature hCOs; 5 μM CHIR99021 with 1 μM compound 51 or 1 μM XMU-MP-1
  proliferation in mature hCO in combination with GSK3 inhibition (Ki-67 intensity): synergistic effect on proliferation
kinases
  off-target effects on cell cycle proteins: PLK4 and AURKB

## CC(C)=CCC/C(C)=C/CC/C(C)=C/COP(=O)(O)OP(=O)(O)O [farnesyl pyrophosphate]
2D hPSC-CM
  rescue of proliferation under 10 μM simvastatin: incapable of rescuing proliferation

## CC(C)=CCC/C(C)=C/CC/C(C)=C/CC/C(C)=C/COP(=O)(O)OP(=O)(O)O [geranylgeranyl pyrophosphate]
2D hPSC-CM
  rescue of proliferation under 10 μM simvastatin: rescued proliferation

## CC(C)=CCC/C(C)=C/CC/C(C)=C/CC/C=C(\C)CC/C=C(\C)CCC=C(C)C [squalene]
2D hPSC-CM
  rescue of proliferation under 10 μM simvastatin: not
